Read-outs that look alike come from different tables or passages of the source.
How the values were obtained:
[1] = format: physicochemical
Description: <Experiment 1. Test of Comparing Lead Dissolving Out Ability of Chelating Agent>
In order to study a kind of a chelating agent to be added to a contaminated soil, the lead dissolving out abilities of 26 types of chelating agents (chelate reagents) were compared (FIG. 2).
2) Chelating agent: Each chelating agent of 100 mmol·dm^−3 and pH 5.8 was prepared.
3) Five grams of 1) the subject soil and 50 ml of 2) the chelating agent were put into to a 100 ml vessel, and shaken (200 times/min) at 20° C. for 6 hours. Repeated cycle was 3.
4) For comparison, a contrast section was prepared, in which desalted water was added instead of the chelating agent in the 3).
5) After shaking, the sample after filtration was centrifuged at 15000 rpm for 5 minutes, and the supernatant liquid was further centrifuged again under the same condition.
6) From the separated supernatant liquid, a lead concentration was measured with an inductively coupled high frequency plasma spectrometry (ICP) device.

Fagopyrum esculentum [2] = conditions: for Leaf dry weight / Stem dry weight / Stem lead concentration / Terrestrial dry weight / Terrestrial part lead accumulation amount / Terrestrial part lead concentration: soil B; for Leaf lead concentration: soil B (lead 13032 mg/kg), added one week before harvesting
Description: A lead concentration in a soil or a plant body was analyzed using ICP-AES (inductively coupled plasma-atomic emission spectrometry) regarding a sample obtained by adding nitric acid and degrading this with a microwave.
A cultivating experiment was conducted as follows: in which Fagopyrum esculentum and Brassica juncca were cultivated in a lead-containing soil filled in a Wagnel pot, a chelating agent was further added to the soil, and a difference in a lead accumulating amount depending on the cultivating condition was examined.
In addition, considering influence on plants and environment such as a salt concentration damage, 1, 5, 10 and 20 mmol kg^−1 soil of chemical reagents were adopted as an addition concentration, and 300 ml/pot (soil 3 kg) was provided as an addition amount.
1) Test plant: Fagopyrum esculentum, trade name (Milkyway), Brassica juncea
2) Test soil: Soil B (sampled from an old firing range site, soil lead concentration 13032 mg/kg), contrast sample (mountain sand in Gifu Prefecture of Japan, soil lead concentration 21 mg/kg)

Fagopyrum esculentum [3] = assay: Fagopyrum esculentum growth situation after addition of chelating agent
Description: 3) The soil B (3 kg) and the contrast section soil (4.3 kg) which had been passed through a sieve (2 mm) were mixed with urea (N: 69 mg/kg soil), calcium superphosphate (P: 75 mg/kg soil), potassium chloride (K: 72 mg/kg soil), and magnesia lime (Mg: 67 mg/kg soil), and sufficiently stirred. 4) The test soil was filled into a Wagnel pot (1/5000a), and a plant was seeded (3 pits/pot, 3 grains/pit). 5) Four to five days after germination, the plant was thinned out to 3 individuals/pot. 6) Cultivation in a gross chamber (Environmental Condition) Temperature: 25° C.×12 h (8:00-20:00), 20° C.×12 h (20:00-8:00) Humidity: 60% Illumination: light condition (8:00-20:00), dark condition (20:00-8:00) Illuminance: 98001×, 180μ mmol˜m^−2·s^−1 7) Aspersion was performed at 100 ml/pot every day. 8) During a test term, a position of a pot was changed four times. 9) Individuals which were about to fall were induced by a support post. 10) One week before harvesting, a chelating agent at each concentration was added to the soil B. An addition amount was 300 ml/pot, and the chelating agent was carefully added to a surface of the soil so that the chelating agent was not contacted with the plant. On the day before addition of the chelating agent and on the day of addition, aspersion was not performed. […] 12) Repeated cycles in all sections were 3 (3 pots/test section).

[4] = chelating agent 100 mmol·dm^−3, pH 5.8, Soil A, shaken at 20° C. for 6 hours, FIG. 2
[5] = chelating agent 10 mmol/kg soil
[6] = chelating agent 20 mmol/kg soil
[7] = per unit area, calculated, chelating agent 1 mmol/kg soil
[8] = per unit area, calculated, chelating agent 5 mmol/kg soil
[9] = per unit area, calculated, chelating agent 10 mmol/kg soil
[10] = per unit area, calculated, chelating agent 20 mmol/kg soil
[11] = four days after addition, 1 mmol/kg soil
[12] = four days after addition, 5 mmol/kg soil
[13] = four days after addition, 10 mmol/kg soil
[14] = four days after addition, 20 mmol/kg soil

O=C([O-])CC(O)(CC(=O)[O-])C(=O)[O-].[Na+].[Na+].[Na+] [Sodium citrate, sodium citrate]
lead dissolving out ability [1, 4]: not so much higher than the aforementioned biodegradable chelating agents
lead dissolving out ability ([1]; pH 5.8): high lead dissolving out ability
Leaf dry weight (Fagopyrum esculentum [2]; chelating agent 1 mmol/kg soil): 0.9090 g/plant
Stem dry weight (Fagopyrum esculentum [2]; chelating agent 1 mmol/kg soil): 1.9892 g/plant
Stem lead concentration (Fagopyrum esculentum [2]; chelating agent 1 mmol/kg soil): 1815 mg/kg
Terrestrial dry weight (Fagopyrum esculentum [2]; chelating agent 1 mmol/kg soil): 2.8982 g/plant
Terrestrial part lead accumulation amount (Fagopyrum esculentum [2]; chelating agent 1 mmol/kg soil): 0.0121 g/plant
Terrestrial part lead concentration (Fagopyrum esculentum [2]; chelating agent 1 mmol/kg soil): 4169 mg/kg
Leaf lead concentration (Fagopyrum esculentum [2]; chelating agent 1 mmol/kg soil): 9320 mg/kg
Leaf dry weight (Fagopyrum esculentum [2]; chelating agent 5 mmol/kg soil): 1.0308 g/plant
Stem dry weight (Fagopyrum esculentum [2]; chelating agent 5 mmol/kg soil): 1.6837 g/plant
Stem lead concentration (Fagopyrum esculentum [2]; chelating agent 5 mmol/kg soil): 1671 mg/kg
Terrestrial dry weight (Fagopyrum esculentum [2]; chelating agent 5 mmol/kg soil): 2.7145 g/plant
Terrestrial part lead accumulation amount (Fagopyrum esculentum [2]; chelating agent 5 mmol/kg soil): 0.0101 g/plant
Terrestrial part lead concentration (Fagopyrum esculentum [2]; chelating agent 5 mmol/kg soil): 3732 mg/kg
Leaf lead concentration (Fagopyrum esculentum [2]; chelating agent 5 mmol/kg soil): 7099 mg/kg
Leaf dry weight (Fagopyrum esculentum [2]; [5]): 0.7356 g/plant
Stem dry weight (Fagopyrum esculentum [2]; [5]): 1.7669 g/plant
Stem lead concentration (Fagopyrum esculentum [2]; [5]): 1524 mg/kg
Terrestrial dry weight (Fagopyrum esculentum [2]; [5]): 2.5025 g/plant
Terrestrial part lead accumulation amount (Fagopyrum esculentum [2]; [5]): 0.0080 g/plant
Terrestrial part lead concentration (Fagopyrum esculentum [2]; [5]): 3191 mg/kg
Leaf lead concentration (Fagopyrum esculentum [2]; [5]): 7195 mg/kg
Leaf dry weight (Fagopyrum esculentum [2]; [6]): 0.8797 g/plant
Stem dry weight (Fagopyrum esculentum [2]; [6]): 1.9099 g/plant
Stem lead concentration (Fagopyrum esculentum [2]; [6]): 2286 mg/kg
Terrestrial dry weight (Fagopyrum esculentum [2]; [6]): 2.7896 g/plant
Terrestrial part lead accumulation amount (Fagopyrum esculentum [2]; [6]): 0.0134 g/plant
Terrestrial part lead concentration (Fagopyrum esculentum [2]; [6]): 4806 mg/kg
Leaf lead concentration (Fagopyrum esculentum [2]; [6]): 10270 mg/kg
Terrestrial part lead accumulation amount (Fagopyrum esculentum [2]; [7]): 1.82 g/m^2
Terrestrial part lead accumulation amount (Fagopyrum esculentum [2]; [8]): 1.52 g/m^2
Terrestrial part lead accumulation amount (Fagopyrum esculentum [2]; [9]): 1.20 g/m^2
Terrestrial part lead accumulation amount (Fagopyrum esculentum [2]; [10]): 2.01 g/m^2
Discoloration of leaf (number of individuals for which symptom was observed) (Fagopyrum esculentum [3]; [11]): 5
Discoloration of leaf (number of individuals for which symptom was observed) (Fagopyrum esculentum [3]; [12]): 2
Discoloration of leaf (number of individuals for which symptom was observed) (Fagopyrum esculentum [3]; [13]): 4
Leaf drop (number of individuals for which symptom was observed) (Fagopyrum esculentum [3]; [13]): 2
Wilting of leaf (number of individuals for which symptom was observed) (Fagopyrum esculentum [3]; [13]): 4
Discoloration of leaf (number of individuals for which symptom was observed) (Fagopyrum esculentum [3]; [14]): 5
Wilting of leaf (number of individuals for which symptom was observed) (Fagopyrum esculentum [3]; [14]): 6

O=C(O)CC(O)(CC(=O)O)C(=O)O [citric acid]
lead dissolving out ability ([1]; pH 5.8): high lead dissolving out ability

disodium ethylenediamine tetraacetate [EDTA · 2Na, reference compound]
lead dissolving out ability [1, 4]: high lead dissolving out ability
addition effect on lead concentration in stems (Fagopyrum esculentum [2]; 10, 20 mmol/kg soil, contrast section 2043 mg/kg): high addition effect
addition effect on lead concentration in leaves (Fagopyrum esculentum [2]; 10, 20 mmol/kg soil, contrast section 7971 mg/kg): high addition effect
Leaf dry weight (Fagopyrum esculentum [2]; chelating agent 1 mmol/kg soil): 0.9799 g/plant
Stem dry weight (Fagopyrum esculentum [2]; chelating agent 1 mmol/kg soil): 1.7240 g/plant
Stem lead concentration (Fagopyrum esculentum [2]; chelating agent 1 mmol/kg soil): 1791 mg/kg
Terrestrial dry weight (Fagopyrum esculentum [2]; chelating agent 1 mmol/kg soil): 2.7039 g/plant
Terrestrial part lead accumulation amount (Fagopyrum esculentum [2]; chelating agent 1 mmol/kg soil): 0.0106 g/plant
Terrestrial part lead concentration (Fagopyrum esculentum [2]; chelating agent 1 mmol/kg soil): 3926 mg/kg
Leaf lead concentration (Fagopyrum esculentum [2]; chelating agent 1 mmol/kg soil): 7683 mg/kg
Leaf dry weight (Fagopyrum esculentum [2]; chelating agent 5 mmol/kg soil): 1.0307 g/plant
Stem dry weight (Fagopyrum esculentum [2]; chelating agent 5 mmol/kg soil): 2.0750 g/plant
Stem lead concentration (Fagopyrum esculentum [2]; chelating agent 5 mmol/kg soil): 2288 mg/kg
Terrestrial dry weight (Fagopyrum esculentum [2]; chelating agent 5 mmol/kg soil): 3.1057 g/plant
Terrestrial part lead accumulation amount (Fagopyrum esculentum [2]; chelating agent 5 mmol/kg soil): 0.0157 g/plant
Terrestrial part lead concentration (Fagopyrum esculentum [2]; chelating agent 5 mmol/kg soil): 5045 mg/kg
Leaf lead concentration (Fagopyrum esculentum [2]; chelating agent 5 mmol/kg soil): 10595 mg/kg
Leaf dry weight (Fagopyrum esculentum [2]; [5]): 0.9617 g/plant
Stem dry weight (Fagopyrum esculentum [2]; [5]): 1.8899 g/plant
Stem lead concentration (Fagopyrum esculentum [2]; [5]): 3376 mg/kg
Terrestrial dry weight (Fagopyrum esculentum [2]; [5]): 2.8516 g/plant
Terrestrial part lead accumulation amount (Fagopyrum esculentum [2]; [5]): 0.0244 g/plant
Terrestrial part lead concentration (Fagopyrum esculentum [2]; [5]): 8564 mg/kg
Leaf lead concentration (Fagopyrum esculentum [2]; [5]): 18758 mg/kg
Leaf dry weight (Fagopyrum esculentum [2]; [6]): 0.6389 g/plant
Stem dry weight (Fagopyrum esculentum [2]; [6]): 1.4969 g/plant
Stem lead concentration (Fagopyrum esculentum [2]; [6]): 8947 mg/kg
Terrestrial dry weight (Fagopyrum esculentum [2]; [6]): 2.1358 g/plant
Terrestrial part lead accumulation amount (Fagopyrum esculentum [2]; [6]): 0.0328 g/plant
Terrestrial part lead concentration (Fagopyrum esculentum [2]; [6]): 15335 mg/kg
Leaf lead concentration (Fagopyrum esculentum [2]; [6]): 30303 mg/kg
Terrestrial part lead accumulation amount (Fagopyrum esculentum [2]; [7]): 1.59 g/m^2
Terrestrial part lead accumulation amount (Fagopyrum esculentum [2]; [8]): 2.36 g/m^2
Terrestrial part lead accumulation amount (Fagopyrum esculentum [2]; [9]): 3.66 g/m^2
Terrestrial part lead accumulation amount (Fagopyrum esculentum [2]; [10]): 4.92 g/m^2
Discoloration of leaf (number of individuals for which symptom was observed) (Fagopyrum esculentum [3]; [11]): 3
Discoloration of leaf (number of individuals for which symptom was observed) (Fagopyrum esculentum [3]; [12]): 4
Leaf drop (number of individuals for which symptom was observed) (Fagopyrum esculentum [3]; [12]): 1
Wilting of leaf (number of individuals for which symptom was observed) (Fagopyrum esculentum [3]; [12]): 1
Discoloration of leaf (number of individuals for which symptom was observed) (Fagopyrum esculentum [3]; [13]): 6
Wilting of leaf (number of individuals for which symptom was observed) (Fagopyrum esculentum [3]; [13]): 2
Discoloration of flower (number of individuals for which symptom was observed) (Fagopyrum esculentum [3]; [14]): 9
Discoloration of leaf (number of individuals for which symptom was observed) (Fagopyrum esculentum [3]; [14]): 9
Leaf drop (number of individuals for which symptom was observed) (Fagopyrum esculentum [3]; [14]): 2
Wilting of leaf (number of individuals for which symptom was observed) (Fagopyrum esculentum [3]; [14]): 9
yellow leaves, spotting and discoloration of leaves, and discoloration of a flower (Fagopyrum esculentum [3]; [14]): confirmed in all individuals
discoloration of leaves (Fagopyrum esculentum [3]; two days after addition, 20 mmol/kg soil): discoloration of leaves was observed

tetrasodium L-glutamic acid diacetate [GLDA·4Na]
lead dissolving out ability [1, 4]: high lead dissolving out ability
